Where a name gives a salt, the structure may show the parent alone.
How the values were obtained:
[1] = molecular target: T1, 5HT6-human recombinant receptor (Homo sapiens, UniProt P50406); assay: Binding to serotonin receptor 5HT6 ([3H]-LSD displacement, HEK-293 cell membranes); details: for inhibition at 1 µM: read-out: % Inhibition 10^−6 M
T1 construct: purchased Receptor Biology; host or cells: HEK-293 cell membranes
Description: Binding to Serotonin Receptor 5HT6
The respective part of the literature description is hereby incorporated by reference and forms part of the disclosure. […] Tests were made in triplicate.
The binding of the inventively used sulphonamide derivatives of general formula (I) was determined as described above.

T1 sequence (P50406 whole entry): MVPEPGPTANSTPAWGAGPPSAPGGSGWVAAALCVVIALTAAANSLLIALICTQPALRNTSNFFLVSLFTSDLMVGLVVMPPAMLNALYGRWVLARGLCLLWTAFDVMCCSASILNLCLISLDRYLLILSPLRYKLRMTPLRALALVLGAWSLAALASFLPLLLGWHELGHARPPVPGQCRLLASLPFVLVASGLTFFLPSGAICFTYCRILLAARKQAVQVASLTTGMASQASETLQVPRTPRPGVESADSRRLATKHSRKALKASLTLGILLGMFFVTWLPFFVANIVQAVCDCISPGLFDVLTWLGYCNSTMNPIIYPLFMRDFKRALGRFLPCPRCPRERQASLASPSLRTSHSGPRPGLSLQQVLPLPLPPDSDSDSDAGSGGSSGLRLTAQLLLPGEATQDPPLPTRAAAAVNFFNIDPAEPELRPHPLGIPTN

CCN(CC)CCc1c[nH]c2ccc(NS(=O)(=O)c3cccc4ccccc34)cc12 (as salt: HCl) [Example 3, Hydrochloride N-[3-(2-diethylaminoethyl)-1H-indol-5-yl]naphthalene-1-sulphonamide]
melting point: 255 to 257 °C

CN1CCC(c2c[nH]c3ccc(NS(=O)(=O)c4cccc5ccccc45)cc23)CC1 (as salt: HCl) [Example 13, N-[3-(1-methylpiperidin-4-yl)-1H-indol-5-yl]naphthalene-1-sulphonamide hydrochloride]
melting point: 212 °C (dec.)

CCN(CC)CCc1c[nH]c2ccc(NS(=O)(=O)c3sc4ccc(Cl)cc4c3C)cc12 [Example 1, N-[3-(2-diethylaminoethyl)-1H-indol-5-yl]-5-chloro-3-methylbenzo[b]thiophene-2-sulphonamide]
Ki [1]: 0.28 nM | inhibition at 1 µM [1]: 98.1 ± 4% | melting point: 170 to 173 °C

CCN(CC)CCc1c[nH]c2ccc(NS(=O)(=O)c3cccc4ccccc34)cc12 [Example 3, Hydrochloride N-[3-(2-diethylaminoethyl)-1H-indol-5-yl]naphthalene-1-sulphonamide]
inhibition at 1 µM [1]: 96.6 ± 5.2%

CCN(CC)CCc1c[nH]c2ccc(NS(=O)(=O)c3cc(Cl)cc(Cl)c3)cc12 [Example 4, N-[3-(2-diethylaminoethyl)-1H-indol-5-yl]-3,5-dichlorobenzenesulphonamide]
inhibition at 1 µM [1]: 96.2 ± 0.6% | melting point: 168 to 170 °C

CCN(CC)CCc1c[nH]c2ccc(NS(=O)(=O)c3ccc(-c4ccccc4)cc3)cc12 [Example 5, N-[3-(2-diethylaminoethyl)-1H-indol-5-yl]-4-phenylbenzenesulphonamide]
inhibition at 1 µM [1]: 101.2 ± 0.1% | melting point: 161 to 163 °C

CCN(CC)CCc1c[nH]c2ccc(NS(=O)(=O)c3ccc(Cl)s3)cc12 [Example 6, N-[3-(2-diethylaminoethyl)-1H-indol-5-yl]-5-chlorothiophene-2-sulphonamide]
Ki [1]: 8.7 nM | inhibition at 1 µM [1]: 97.6 ± 1.8% | melting point: 180 to 181 °C

Cc1c(S(=O)(=O)Nc2ccc3[nH]cc(CCN(C)C)c3c2)sc2ccc(Cl)cc12 [Example 7, N-[3-(2-dimethylaminoethyl)-1H-indol-5-yl]-5-chloro-3-methylbenzo[b]thiophene-2-sulphonamide]
Ki [1]: 0.13 nM | inhibition at 1 µM [1]: 103 ± 7.9% | melting point: 226 to 227 °C

CN(C)CCc1c[nH]c2ccc(NS(=O)(=O)c3cccc4ccccc34)cc12 [Example 8, N-[3-(2-dimethylaminoethyl)-1H-indol-5-yl]naphthalene-1-sulphonamide]
Ki [1]: 0.76 nM | inhibition at 1 µM [1]: 94.5 ± 7% | melting point: 203 to 205 °C

CN(C)CCc1c[nH]c2ccc(NS(=O)(=O)c3c(Cl)nc4sccn34)cc12 [Example 9, N-[3-(2-dimethylamino-ethyl)-1H-indol-5-yl]-6-chloroimidazo[2,1-b]thiazol-5-sulphonamide]
inhibition at 1 µM [1]: 96.8 ± 3.7%

Cc1c(S(=O)(=O)Nc2ccc3[nH]cc(C4CCN(C)CC4)c3c2)sc2ccc(Cl)cc12 [Example 11, N-[3-(1-methylpiperidin-4-yl)-1H-indol-5-yl]-5-chloro-3-methylbenzo[b]thiophene-2-sulphonamide hydrochloride]
Ki [1]: 0.98 nM | inhibition at 1 µM [1]: 101%

CN1CCC(c2c[nH]c3ccc(NS(=O)(=O)c4cccc5ccccc45)cc23)CC1 [Example 13, N-[3-(1-methylpiperidin-4-yl)-1H-indol-5-yl]naphthalene-1-sulphonamide hydrochloride]
inhibition at 1 µM [1]: 98.3%

CN1CCC(c2c[nH]c3ccc(NS(=O)(=O)c4ccc(Cl)s4)cc23)CC1 [Example 14, N-[3-(1-methylpiperidin-4-yl)-1H-indol-5-yl]-5-chlorothiophene-2-sulphonamide]
melting point: 284 °C (dec.)

CN1CCC(c2c[nH]c3ccc(NS(=O)(=O)c4ccc(-c5ccccc5)cc4)cc23)CC1 [Example 15, N-[3-(1-methylpiperidin-4-yl)-1H-indol-5-yl]-4-phenylbenzenesulphonamide]
melting point: 247 to 248 °C

CN1CCC(c2c[nH]c3ccc(NS(=O)(=O)c4cccc5cccnc45)cc23)CC1 [Example 16, N-[3-(1-methylpiperidin-4-yl)-1H-indol-5-yl]quinoline-8-sulphonamide]
melting point: 280 °C (dec.)

CCN(CC)CCc1c[nH]c2ccc(NS(=O)(=O)c3ccc4ccccc4c3)cc12 [Example 17, N-[3-(2-diethylaminoethyl)-1H-indol-5-yl]naphthalene-2-sulphonamide]
inhibition at 1 µM [1]: 102% | melting point: 172 to 173 °C
